Holding throughout (type): cell-based
Test [1] deals with T1, hGIPR (Homo sapiens, UniProt P48546).
T1 sequence (P48546 22-466): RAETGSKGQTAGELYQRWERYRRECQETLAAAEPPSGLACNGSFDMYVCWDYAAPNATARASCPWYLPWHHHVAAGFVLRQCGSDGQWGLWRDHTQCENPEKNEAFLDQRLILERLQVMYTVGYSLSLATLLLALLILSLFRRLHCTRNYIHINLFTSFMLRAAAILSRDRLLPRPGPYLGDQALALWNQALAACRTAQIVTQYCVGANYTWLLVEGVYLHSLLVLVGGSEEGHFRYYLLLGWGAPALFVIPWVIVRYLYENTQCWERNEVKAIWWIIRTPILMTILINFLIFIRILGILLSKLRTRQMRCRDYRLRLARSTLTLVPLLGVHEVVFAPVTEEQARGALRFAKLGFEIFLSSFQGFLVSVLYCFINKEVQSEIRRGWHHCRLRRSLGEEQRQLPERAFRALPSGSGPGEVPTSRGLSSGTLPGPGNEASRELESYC
The test can be described thus: Functional cAMP activation in the presence of 0.1% casein (no HSA). The following applies: in the presence of 0.1% casein (no HSA); geometric mean; read-out: Relative cAMP EC50, hGIPR.

The target of test [2] is T2, hGLP-1R (Homo sapiens, UniProt P43220). The test can be described thus: Functional cAMP activity in the presence of 1% HSA. The following applies: read-out: cAMP Rel EC50, hGLP-1R.
T2 sequence (P43220 24-463): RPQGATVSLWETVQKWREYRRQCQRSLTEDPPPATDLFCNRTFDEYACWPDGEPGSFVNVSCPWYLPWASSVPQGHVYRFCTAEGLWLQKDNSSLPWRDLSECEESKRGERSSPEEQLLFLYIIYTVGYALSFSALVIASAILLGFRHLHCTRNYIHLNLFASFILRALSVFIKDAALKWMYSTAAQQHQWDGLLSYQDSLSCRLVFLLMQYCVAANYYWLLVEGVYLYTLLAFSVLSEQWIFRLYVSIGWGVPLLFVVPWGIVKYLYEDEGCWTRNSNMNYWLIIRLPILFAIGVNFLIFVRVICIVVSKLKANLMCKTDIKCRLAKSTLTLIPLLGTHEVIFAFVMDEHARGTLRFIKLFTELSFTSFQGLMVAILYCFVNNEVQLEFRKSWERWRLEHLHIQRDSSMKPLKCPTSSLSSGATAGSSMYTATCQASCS
The target of test [3] is hGcgR (Homo sapiens, UniProt P47871). The test can be described thus: Functional cAMP activation in the presence of 0.1% casein (no HSA). The following applies: in the presence of 0.1% casein (no HSA); geometric mean; read-out: Relative cAMP EC50, hGcgR.
Chain of hGcgR (P47871 26-477): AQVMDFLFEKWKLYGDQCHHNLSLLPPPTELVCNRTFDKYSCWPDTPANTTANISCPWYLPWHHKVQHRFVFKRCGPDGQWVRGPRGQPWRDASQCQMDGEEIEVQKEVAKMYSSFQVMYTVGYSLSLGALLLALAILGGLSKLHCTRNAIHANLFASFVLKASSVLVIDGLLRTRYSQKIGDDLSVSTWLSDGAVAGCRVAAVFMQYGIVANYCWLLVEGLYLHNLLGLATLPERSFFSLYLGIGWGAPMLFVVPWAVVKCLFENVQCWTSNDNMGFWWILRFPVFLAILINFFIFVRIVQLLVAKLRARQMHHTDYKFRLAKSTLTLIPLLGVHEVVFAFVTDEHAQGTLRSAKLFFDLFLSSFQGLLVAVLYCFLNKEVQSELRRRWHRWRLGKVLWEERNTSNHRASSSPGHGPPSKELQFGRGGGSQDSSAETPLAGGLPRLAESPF
Test [4] deals with human GcgR (Homo sapiens, UniProt P47871). The test can be described thus: Functional cAMP activity in the presence of 1% HSA. The following applies: read-out: cAMP Rel EC50, hGcgR.
Chain of human GcgR (P47871 26-477): as above
The target in test [5] is T1, hGIPR. The test can be described thus: Functional cAMP activity in the presence of 1% HSA. The following applies: read-out: cAMP Rel EC50, hGIPR.
Test [6] addresses T2, hGLP-1R. The test can be described thus: Functional cAMP activation in the presence of 0.1% casein (no HSA). The following applies: in the presence of 0.1% casein (no HSA); geometric mean; read-out: Relative cAMP EC50, hGLP-1R.

This passage reports EC50 results from US20240270821A1, “GIP/GLP1/GCG TRI-RECEPTOR AGONISTS AND USES THEREOF” (priority 2023, published 2024).

As a reminder, the EC50 is the concentration needed to bring the measured effect to its halfway point.

Starred links: 1 amine or outer side, 2 acyl side, 3 side chain; linkers in the order of their positions; H or OH if unused. Non-standard residues stand in square brackets, D forms with d. Groups on a side chain read outwards from the residue. *: point of attachment. C18 diacid = O=C(O)CCCCCCCCCCCCCCCCC(=O)*; γGlu = O=C(O)[C@H](CCC(=O)[*:2])N[*:1]; αMe4Pal = C[C@](N)(Cc1ccncc1)C(=O)O; αMeY = C[C@](N)(Cc1ccc(O)cc1)C(=O)O; 4Pal = N[C@@H](Cc1ccncc1)C(=O)O; αMeL = CC(C)C[C@](C)(N)C(=O)O; Orn = NCCC[C@H](N)C(=O)O; Aib = CC(C)(N)C(=O)O
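Throughout, for Relative cAMP EC50, hGIPR: intracellular cAMP rise after 30 min at 37 °C read by HTRF against a standard curve, scaled between buffer alone (0%) and top control ligand concentration (100%), four-parameter fit.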
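Throughout, for Relative cAMP EC50, hGLP-1R: intracellular cAMP rise after 30 min at 37 °C read by HTRF, normalized between buffer only (0%) and maximal control ligand (100%), four-parameter variable-slope fit.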
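Throughout, for Relative cAMP EC50, hGcgR: intracellular cAMP rise after 30 min at 37 °C, read by HTRF against a cAMP standard curve, scaled from buffer only (0%) to maximal control ligand response (100%).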

“H-Y[Aib]QGTFTSD[4Pal]S[Orn][αMeL]LDKK([γGlu-γGlu-C18 diacid])AQ[αMe4Pal]AFIEYLIAGGPSSGEPPPSGTEE-NH2 [Example 981]”: the EC50 in test [1] was determined as 0.243 nM; in test [2], 330 nM; in test [3], 3.7 nM; in test [4] it was 477 nM; in test [5], 21.1 nM; in test [6], 4.45 nM.

As to “H-Y[Aib]QGTFTSD[4Pal]S[Orn][αMeL]LDKK([γGlu-γGlu-C18 diacid])AQ[αMe4Pal]AFIEYLIAGGPSSGEPPPSGTEEE-NH2 [Example 982]”, the EC50 in test [1] is 0.328 nM; in test [2], 310 nM; in test [3], 3.91 nM; in test [4], 307 nM; in test [5], 19.4 nM; in test [6], 4.94 nM.

Consider “H-Y[Aib]QGTFTSD[4Pal]S[Orn][αMeL]LDKK([γGlu-γGlu-C18 diacid])AQ[αMe4Pal]AFIEYLIE[Aib]GPSSGAPPPSGS-NH2 [Example 865]”, for which the concentration giving a half-maximal response (EC50) in test [1] was found to be 0.0797 nM; in test [2] it was 351 nM; in test [3], 1.48 nM; in test [4] it was 248 nM; in test [5], 10.8 nM; in test [6], 3.02 nM.

For the substance “H-Y[Aib]QGTFTSD[4Pal]S[Orn][αMeL]LDKK([γGlu-γGlu-C18 diacid])AQ[αMe4Pal]AFIE[αMe4Pal]LIEGGPSSGAPPPSGS-NH2 [Example 952]”, the concentration giving a half-maximal response (EC50) in test [1] was found to be 0.166 nM; in test [2] it was 439 nM; in test [3], 2.4 nM; in test [4], 266 nM; in test [5], 16.6 nM; in test [6], 4.85 nM.

“H-Y[Aib]QGTFTSD[4Pal]S[Orn][αMeL]LDKK([γGlu-γGlu-C18 diacid])AQ[αMe4Pal]AFIE[αMe4Pal]LIEGGPSSGAPPPSGSEE-NH2 [Example 958]”: the EC50 in test [1] turned out to be 0.343 nM; in test [2], 850 nM; in test [3] it was 3.17 nM; in test [4], 340 nM; in test [5], 27.1 nM; in test [6] it was 9.51 nM.

Take “H-Y[Aib]QGTFTSD[4Pal]S[Orn][αMeL]LDKK([γGlu-γGlu-C18 diacid])AQ[αMe4Pal]AFIE[αMe4Pal]LIE[Aib]GPSSGEPPPSGSE-NH2 [Example 990]”: the EC50 in test [1] turned out to be 0.115 nM; in test [2] it was 557 nM; in test [3], 2.47 nM; in test [4], 276 nM; in test [5], 9.87 nM; in test [6], 5.78 nM.

On to “H-Y[Aib]QGTFTSD[4Pal]S[Orn][αMeL]LDKK([γGlu-γGlu-C18 diacid])AQ[αMe4Pal]AFIE[αMeY]LIAGGPSSGAPPPEGS-NH2 [Example 1015]”, for which the EC50 in test [1] was 0.0822 nM; in test [2], 92.4 nM; in test [3], 3.53 nM; in test [4] it was 357 nM; in test [5], 9.08 nM; in test [6], 1.01 nM.

For the substance “H-Y[Aib]QGTFTSD[4Pal]S[Orn][αMeL]LDKK([γGlu-γGlu-C18 diacid])AQ[αMe4Pal]AFIE[αMeY]LIAGGPSSGEPPPSGS-NH2 [Example 1014]”, the EC50 in test [1] was found to be 0.0412 nM; in test [2] it was 86.4 nM; in test [3] it was 3.62 nM; in test [4], 277 nM; in test [5], 5.62 nM; in test [6], 0.718 nM.

In the case of “H-Y[Aib]QGTFTSD[4Pal]S[Orn][αMeL]LDKK([γGlu-γGlu-C18 diacid])AQ[αMe4Pal]AFIE[αMeY]LIEGGPSSGAPPPSGSEE-NH2 [Example 967]”, the half-maximal effective concentration (EC50) is 0.205 nM in test [1]; 345 nM in test [2]; 1.94 nM in test [3]; 508 nM in test [4]; 39.5 nM in test [5]; 1.75 nM in test [6].

Turning to “H-Y[Aib]QGTFTSD[4Pal]S[Orn][αMeL]LDKK([γGlu-γGlu-γGlu-C18 diacid])AQ[αMe4Pal]AFIEYLIE[Aib]GPSSGAPPPSGS-NH2 [Example 866]”, the 50% effective concentration (EC50) is 0.148 nM in test [1]; 483 nM in test [2]; 4.48 nM in test [3]; 669 nM in test [4]; 23.8 nM in test [5]; 4.01 nM in test [6].

As to “H-Y[Aib]QGTFTSD[4Pal]S[Orn][αMeL]LD[Orn]K([Glu-Glu-γGlu-C18 diacid])AQ[Aib]AFIE[αMeY]LLEGGPSSGAPPPSGSEE-NH2 [Example 1067]”, the EC50 in test [1] was 0.471 nM; in test [2], 2610 nM; in test [3] it was 12.6 nM; in test [4], 1860 nM; in test [5], 86.4 nM; in test [6], 17.6 nM.

For the substance “H-Y[Aib]QGTFTSD[4Pal]S[Orn][αMeL]LD[Orn]K([Glu-γGlu-C18 diacid])AQ[Aib]AFIE[αMeY]LLEGGPSSGAPPPSGSEE-NH2 [Example 1066]”, the EC50 in test [1] came out at 0.446 nM; in test [2] it was 1850 nM; in test [3], 25.4 nM; in test [4], 4260 nM; in test [5], 69.9 nM; in test [6] it was 9.8 nM.

For “H-Y[Aib]QGTFTSD[4Pal]S[Orn][αMeL]LD[Orn]K([dE-γGlu-C18 diacid])AQ[αMe4Pal]AFIEYLIAGGPSSGAPPPSGSEE-NH2 [Example 1063]”, the concentration giving a half-maximal response (EC50) is 0.318 nM in test [1]; 626 nM in test [2]; 10.6 nM in test [3]; 2290 nM in test [4]; 26.6 nM in test [5]; 6.96 nM in test [6].

Turning to “H-Y[Aib]QGTFTSD[4Pal]S[Orn][αMeL]LD[Orn]K([γGlu-γGlu-C18 diacid])AQ[Aib]AFIEYLLAGGPSSGAPPPSGSEE-NH2 [Example 1069]”, the 50% effective concentration (EC50) in test [1] came to 0.417 nM; in test [2], 1290 nM; in test [3], 21.2 nM; in test [4], 2160 nM; in test [5] it was 39.5 nM; in test [6] it was 8.87 nM.

Take “H-Y[Aib]QGTFTSD[4Pal]S[Orn][αMeL]LD[Orn]K([γGlu-γGlu-C18 diacid])AQ[Aib]AFIE[αMeY]LLEGGPSSGAPPPSGSEE-NH2 [Example 1064]”: the concentration giving a half-maximal response (EC50) amounted to 0.556 nM in test [1]; 912 nM in test [2]; 13.7 nM in test [3]; 1940 nM in test [4]; 62.5 nM in test [5]; 7.89 nM in test [6].

In the case of “H-Y[Aib]QGTFTSD[4Pal]S[Orn][αMeL]LD[Orn]K([γGlu-γGlu-C18 diacid])AQ[αMe4Pal]AFIEYLIAGGPSSGEPPPSGE-NH2 [Example 983]”, the concentration giving a half-maximal response (EC50) was 0.289 nM in test [1]; 207 nM in test [2]; 4.75 nM in test [3]; 576 nM in test [4]; 19.4 nM in test [5]; 2.35 nM in test [6].

As to “H-Y[Aib]QGTFTSD[4Pal]S[Orn][αMeL]LD[Orn]K([γGlu-γGlu-C18 diacid])AQ[αMe4Pal]AFIEYLIAGGPSSGEPPPSGTE-NH2 [Example 984]”, the half-maximal effective concentration (EC50) in test [1] is 0.232 nM; in test [2], 160 nM; in test [3], 4.5 nM; in test [4], 409 nM; in test [5], 23.5 nM; in test [6] it was 2.07 nM.

As to “H-Y[Aib]QGTFTSD[4Pal]S[Orn][αMeL]LD[Orn]K([γGlu-γGlu-C18 diacid])AQ[αMe4Pal]AFIEYLIAGGPSSGEPPPSGTEE-NH2 [Example 985]”, the concentration for a half-maximal effect (EC50) in test [1] turned out to be 0.34 nM; in test [2], 217 nM; in test [3], 5.41 nM; in test [4], 374 nM; in test [5], 24 nM; in test [6] it was 2.93 nM.
